These are literature values, as cited in patent US12037623B2, “Enzymatic synthesis of 4′-ethynyl nucleoside analogs” (priority 2018, dated 2024).

The conditions of series [1]: pbmc.
Another series relates to HIV infection. The following applies: humanized mouse models and SIV infected rhesus macaque model.
For series [2] the following is noted: oral; mouse and rhesus monkey.
The test system of the next series is SIV. Conditions: PBMC from rhesus macaque, 24 hr after drug administration.

`C#C[C@]1(COP(=O)(O)OP(=O)(O)OP(=O)(O)O)O[C@@H](n2cnc3c(N)nc(F)nc32)C[C@@H]1O` [EFdA-TP, EFdA Triphosphate]: the intracellular half-life entry in series [1] is “exceeds 72 hrs”.

Regarding `C#C[C@]1(CO)O[C@@H](n2cnc3c(N)nc(F)nc32)C[C@@H]1O` [EFdA, 4′-ethynyl-2-fluoro-2′-deoxyadenosine], in the series with HIV (clinical isolates across all subtypes that have been evaluated), the “antiviral activity against clinical isolates” value was “comparable antiviral activity”. For the same compound, in the series on HIV (in-vitro HIV replication assays), the antiretroviral activity result is given as “potent antiretroviral”. Further, the “efficacy in animal models of HIV infection” value in the series with HIV infection is “efficacy”. Besides, in series [2], the absorption result is “rapid absorption” and the plasma concentrations result is “high plasma concentrations”. In the series on SIV, the “susceptibility of isolated PBMC to SIV infection” value is recorded as “refractory to SIV infection”.
